Test results reported in US7785900B1, “Glutathione beads and GST fusion proteins” (STC.UNM, priority 2006, dated 2010).
pEC50, pKd, pKi: −log10 of the molar value.

Experiments:
[1] = target: T1, GST-Rab7 (Homo sapiens, UniProt P51149); assay: Bodipy-FL-GTP binding to and dissociation from bead-bound GST-Rab7
T1 construct: made in house; host or cells: bacteria
Experimental: A fluorescent GTP-binding assay capable of being monitored by flow cytometry was developed and optimized using GST-Rab7 protein and Bodipy-FL-GTP (GTP*). […] Values are usually expressed as 1000 fluorescence equivalents of fluorescein in free solution (kMESF).
The binding of purified GST-Rab7 to bGSH was measured by using increasing concentrations (1.0-316.0 nM) of GST-Rab7 with a fixed amount of bGSH (−10,000 beads/reaction and excess (1.0 µM) GTP*).
In order to measure the rate of GTP* dissociation from bead-bound Rab7, bGSH were pre-loaded with 100 nM GST-Rab7 and incubated with 1 µM GTP* at 37° C. for 2 h. Dissociation of GTP* from the beads was then measured at 37° C. both for simple dilution with buffer as well as upon addition of 1000-fold higher (1 mM) non-fluorescent GTP (FIG. 6). The calculated half-time was 72.7s. The rate of dissociation in the presence of 1 mM unlabeled GTP alone was 9.6×10^−3s^−1.

[2] = tested on: Ras superfamily members; assay: Multiplex Bodipy-FL-GTP binding and GTP competition
Experimental: The Bodipy-FL-GTP binding assay established using wild-type GST-Rab7 was adapted for multiplex, high-throughput assays by Sklar and colleagues.
384-well microplates are configured with 64 control wells (columns 1 and 2 unblocked, and columns 23 and 24 with 1 mM GTP), leaving 320 wells to which test compounds are added as per the Roadmap compound plates supplied. Compounds from the molecular library and GTP controls are added in 5 μl, Bodipy-FL-GTP is added in 5 μl, and GST-G protein-coated beads are added in 5 μl. […] The bead sets are coated by mixing each “address level of red fluorescence” bead type individually in the presence of ˜60 nM GST-small G protein for two hours with 5,000 beads per microliter. The sets are then combined together, centrifuged, and resuspended just before addition to the assay plate. The beads are kept in suspension during the competitive assay using rotation at 22° C. for 2 hours, then the plate is read at room temperature at a cytometer.

[3] = target: Bcl-2 family proteins; details: Oltersdorf et al., 2005; read-out: binding constant obtained earlier; cited from earlier work
[4] = target: GST-GFP (Schistosoma japonicum, UniProt P08515); assay: biochemical
GST-GFP, sequence (P08515 2-218, added parts left off): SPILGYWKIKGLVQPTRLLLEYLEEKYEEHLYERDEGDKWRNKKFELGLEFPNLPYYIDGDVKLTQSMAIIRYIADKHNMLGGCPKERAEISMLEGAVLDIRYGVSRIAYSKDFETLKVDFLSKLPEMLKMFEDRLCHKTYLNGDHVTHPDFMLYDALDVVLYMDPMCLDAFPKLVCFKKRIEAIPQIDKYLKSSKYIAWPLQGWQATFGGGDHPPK
Experimental: The standard assay for monitoring the concentration of free glutathione was performed in ten microliters of HPSM buffer with 0.01% dodecyl maltoside added to reduce nonspecific binding. Typically, two microliters of 50 nM GST-GFP and two microliters of bead suspension containing 10,000 beads (as determined using a hemacytometer) were added to six microliters of buffer, with or without some competitor, giving 10 nM GST-GFP in the suspension. The ten microliter assays were gently shaken in wells of a 96 V-shaped well plate (Corning Costar #2897) on a vortex mixer in a cold room for two hours.

[5] = target: T1, GST-Rab7; assay: Competition of nucleotides with Bodipy-FL-GTP for bead-bound GST-Rab7; format: binding; details: 10 nM GST-Rab7 preloaded, 1 μM GTP*
Description: The signal to background levels are compatible with homogeneous analysis of the binding of the fluorescent GTP analog. Moreover, the assay is conservative with respect to protein, using <1 pmol of protein per well.

[6] = tested on: GST-Bcl-2 fusion proteins; assay: FPA competition assay with FITC-Bid BH3 peptide; format: binding, human; details: 100 nM GST-Bcl-2 fusion proteins, 5 nM FITC-Bid BH3
Experimental: 100 nM of GST-Bcl-2 fusion proteins were incubated with various concentrations of EGCG or control compound ECG (“C”) for 2 min in PBS buffer in 50 μL. Then, 5 nM FITC-conjugated-Bid BH3 peptide was added, bringing final volume to 100 μL and final DMSO concentration to 1%. Fluorescence polarization was measured after 20 minutes.
C1.3 FPA competition assay for Bcl-2-binding compounds. The green tea compound […] has been reported to bind Bcl-2 and Bcl-XL (Leone et al., 2003). The ability of EGCG to compete with fluorochrome-labeled BH3 peptides was confirmed by FPA. […] This compound therefore can serve as a positive control when performing high throughput screens of any compound library, including the NIH library.

T1 sequence (P51149 whole entry): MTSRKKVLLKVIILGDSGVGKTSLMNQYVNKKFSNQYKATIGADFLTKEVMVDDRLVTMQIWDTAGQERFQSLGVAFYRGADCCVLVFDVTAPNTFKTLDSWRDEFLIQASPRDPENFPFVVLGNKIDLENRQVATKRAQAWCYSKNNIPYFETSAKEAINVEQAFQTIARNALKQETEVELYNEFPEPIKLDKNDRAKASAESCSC

In the case of `Cc1cc(C)n2c1C=C1C=CC(CCC(=O)NCCNC(=O)OC3C(COP(=O)(O)OP(=O)(O)OP(=O)(O)O)OC(n4cnc5c(=O)[nH]c(N)nc54)C3O)=[N+]1[B-]2(F)F` (stereo not drawn) [GTP*], the rate of dissociation ([1]; 1 mM GTP alone, 37° C.) was 0.0096 s⁻¹, the pKd ([1]; GTP* binding to GST-Rab7) was 7.03 and the specific binding affinities ([2]; fourplex) was “within a factor of two of each other”. For the same compound, the EC50s ([2]; sixplex, 25 or 50 nM Bodipy-FL-GTP) was “within the same order of magnitude”.

In the case of `CN(C)CC[C@H](CSc1ccccc1)Nc1ccc(S(=O)(=O)NC(=O)c2ccc(N3CCN(Cc4ccccc4-c4ccc(Cl)cc4)CC3)cc2)cc1[N+](=O)[O-]` [ABT737], the pKi [3] is listed as greater than 9.00.

With `N[C@@H](CCC(=O)N[C@@H](CS)C(=O)NCC(=O)O)C(=O)O` [GSH, γ-glu-cys-gly] the pEC50 [4] was 4.41 and the pKi [4] was 4.46.

For `Nc1nc2c(ncn2[C@@H]2O[C@H](COP(=O)(O)OP(=O)(O)O)[C@@H](O)[C@H]2O)c(=O)[nH]1` [GDP], the pEC50 [5] was 6.25.

For `O=C(O[C@@H]1Cc2c(O)cc(O)cc2O[C@@H]1c1cc(O)c(O)c(O)c1)c1cc(O)c(O)c(O)c1` [ECGC, epigallecatechin], the “competition with FITC-Bid BH3 peptide” value [6] was “binds to all six anti-apoptotic members of the Bcl-2-family, to variable extents”.
